Seven compounds from patent US20260070922A1, “PYRAZOLE AND IMIDAZOLE DERIVATIVES AS DUAL OREXIN AND KAPPA-OPIOID RECEPTORS MODULATORS COMPOSITION, METHODS FOR TREATING NEUROLOGICAL AND PSYCHIATRIC DISORDERS” (HAGER BIOSCIENCES, LLC, priority 2022, published 2026) can be followed below.

Molecules are shown by their SMILES.

Assay [1] deals with T1, human k-opioid receptor (kOR) (Homo sapiens, UniProt P41145).
T1 construct: expressed in transfected cells; host or cells: RBL cells (membrane homogenates)
T1 sequence (P41145 whole entry): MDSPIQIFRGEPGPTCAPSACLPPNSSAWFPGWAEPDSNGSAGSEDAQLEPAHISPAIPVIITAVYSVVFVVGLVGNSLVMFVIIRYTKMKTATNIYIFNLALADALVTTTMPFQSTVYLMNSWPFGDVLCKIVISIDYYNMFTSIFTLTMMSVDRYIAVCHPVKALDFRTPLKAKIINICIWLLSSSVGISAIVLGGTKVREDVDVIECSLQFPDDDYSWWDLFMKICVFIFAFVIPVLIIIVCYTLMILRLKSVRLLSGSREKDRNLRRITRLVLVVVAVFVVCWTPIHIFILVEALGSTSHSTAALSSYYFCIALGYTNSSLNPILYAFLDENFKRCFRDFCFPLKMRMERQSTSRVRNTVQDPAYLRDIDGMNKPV
Nature of the assay: Human k-opioid (KOP) receptor (agonist radioligand [3H]U-69593) binding assay, transfected RBL cell membranes. As to conditions: second value of IC50/Ki cell.

Assay [2] concerns the target T2, Orexin type 1 (OX1R) receptor (Homo sapiens, UniProt O43613).
T2 construct: expressed in transfected cells; host or cells: CHO cells (G418 selection)
T2 sequence (O43613 1-425): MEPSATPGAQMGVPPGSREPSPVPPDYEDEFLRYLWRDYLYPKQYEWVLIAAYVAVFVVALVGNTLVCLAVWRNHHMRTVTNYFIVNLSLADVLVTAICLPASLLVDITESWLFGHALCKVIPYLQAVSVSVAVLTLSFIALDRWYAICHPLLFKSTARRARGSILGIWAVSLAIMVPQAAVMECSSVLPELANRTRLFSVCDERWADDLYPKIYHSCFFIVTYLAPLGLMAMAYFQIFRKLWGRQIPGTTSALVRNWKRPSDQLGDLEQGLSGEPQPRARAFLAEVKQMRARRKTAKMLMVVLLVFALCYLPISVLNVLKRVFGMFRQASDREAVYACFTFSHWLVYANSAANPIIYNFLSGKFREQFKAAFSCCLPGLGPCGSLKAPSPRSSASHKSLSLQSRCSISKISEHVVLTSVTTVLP
Nature of the assay: In vitro orexin antagonism assay: intracellular calcium measurement (FLIPR), orexin-A 3 nM as agonist. Type of assay: cell-based. As to conditions: for IC50: first value of IC50/Kb cell; for inhibition at 1 µM: read-out: OX1R, % Inh. @ 1 uM; for Kb: second value of IC50/Kb cell. An outline of the steps: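 CHO cells expressing the human orexin receptor were loaded with 3 μM fluo-4 AM plus 5 mM probenecid, then exposed to antagonist for 120 min before 3 nM orexin-A (final) was added on a FLIPR.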

The target of assay [3] is T3, human orexin-2 receptor (OX2R) (Homo sapiens, UniProt O43614).
T3 construct: expressed in transfected cells; host or cells: CHO cells (G418 selection)
T3 sequence (O43614 1-444): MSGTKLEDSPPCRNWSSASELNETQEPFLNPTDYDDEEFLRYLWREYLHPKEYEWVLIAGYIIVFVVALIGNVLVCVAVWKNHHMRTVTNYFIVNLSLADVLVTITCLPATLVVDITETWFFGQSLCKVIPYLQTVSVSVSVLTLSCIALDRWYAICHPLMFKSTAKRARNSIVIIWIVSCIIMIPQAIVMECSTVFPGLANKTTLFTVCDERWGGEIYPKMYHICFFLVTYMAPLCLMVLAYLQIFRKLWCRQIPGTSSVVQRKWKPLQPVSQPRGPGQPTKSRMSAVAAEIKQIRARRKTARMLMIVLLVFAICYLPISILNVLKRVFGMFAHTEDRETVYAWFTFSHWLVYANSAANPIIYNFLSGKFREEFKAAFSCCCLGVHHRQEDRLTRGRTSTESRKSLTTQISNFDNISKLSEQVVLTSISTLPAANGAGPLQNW
The description is as above. The class given is cell-based. Particulars: for IC50: first value of IC50/Kb cell; for inhibition at 1 µM: read-out: OX2R, % Inh. @ 1 uM; for Kb: second value of IC50/Kb cell. The essentials: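 CHO cells stably expressing human OX1R or OX2R, loaded with fluo-4 AM (3 μM, 5 mM probenecid) for 50 min at 37 °C, then 30 min at RT. Antagonist preincubated 120 min before 3 nM orexin-A; FLIPR fluorescence peak height vs vehicle gives IC50, possibly normalized to on-plate reference; geometric mean of repeats.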

Assay [4] addresses T1, human k-opioid receptor (kOR). Briefly: Human k-opioid (KOP) receptor (agonist radioligand [3H]U-69593) binding assay, transfected RBL cell membranes. Particulars: for IC50: first value of IC50/Ki cell; for inhibition at 1 µM: read-out: KOR % Inh. @ 1 uM. The essentials:
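Membranes from transfected RBL cells (~80 μg protein) incubated 60 min at 22° C with 0.5 nM [3H]U-69593 in 50 mM Tris-HCl pH 7.4, 10 mM MgCl2, 1 mM EDTA. Nonspecific binding defined with 10 μM naloxone; filtration and scintillation counting. Values are percent inhibition of specific radioligand binding.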

In turn, `O=C(c1c(-c2ccccc2)nc2ccc(F)cn12)N1CCC[C@H]1Cn1ccc(-c2ccc(F)cn2)n1` [Example 92] had a Ki in assay [1] of 94 nM. Besides, in assay [2], the IC50 was found to be 250 nM, the inhibition at 1 µM was determined as 75% and the Kb turned out to be 52 nM. Also, in assay [3], the IC50 turned out to be 930 nM, the inhibition at 1 µM is 61% and the Kb turned out to be 160 nM. Also, in assay [4], the IC50 was found to be 170 nM and the inhibition at 1 µM stood at 79%.

In assay [1], `O=C(c1c(-c2ccccc2)nc2cc(C(F)(F)F)ccn12)N1CCC[C@H]1Cn1ccc(-c2ccc(F)cn2)n1` [Example 94] gave an inhibitory constant (Ki) of 120 nM. Also, in assay [2], the IC50 came to 37 nM, the inhibition at 1 µM worked out at 88% and the Kb is 8 nM. Also, in assay [3], the IC50 was determined as 36 nM, the inhibition at 1 µM came to 76% and the Kb was 6 nM. Further, in assay [4], the IC50 worked out at 210 nM and the inhibition at 1 µM was determined as 74%.

`O=C(c1c(-c2ccccc2F)nn2ccccc12)N1[C@H](Cn2ccc(-c3ccc(F)cc3)n2)C[C@@H]2C[C@@H]21` [Example 95]: in assay [1], affinity was put at a Ki of 99 nM. For the same compound, in assay [2], the IC50 was found to be 95 nM, the inhibition at 1 µM turned out to be 91% and the Kb turned out to be 20 nM. The inhibition at 1 µM in assay [3] came to 50%. Moreover, in assay [4], the IC50 turned out to be 180 nM and the inhibition at 1 µM came out at 87%.

As to `O=C(c1c(-c2ccccc2)nc2ccc(F)cn12)N1[C@H](Cn2ccc(-c3ccc(F)cc3)n2)C[C@@H]2C[C@@H]21` [Example 97], the Ki in assay [1] turned out to be 44 nM. Besides, the IC50 in assay [2] is 160 nM; in assay [4] it was 80 nM. Also, the inhibition at 1 µM in assay [2] came out at 70%; in assay [3] it was 37%; in assay [4] it was 91%. Also, in assay [2], the Kb worked out at 33 nM.

In assay [1], `O=C(c1c(-c2ccccc2F)nn2ccccc12)N1[C@H](Cn2ccc(-c3ccc(F)cn3)n2)C[C@@H]2C[C@@H]21` [Example 107] yielded a Ki of 500 nM. In addition, in assay [2], the IC50 was 83 nM, the inhibition at 1 µM amounted to 92% and the Kb came to 18 nM. For the same compound, in assay [3], the IC50 is 520 nM, the inhibition at 1 µM worked out at 55% and the Kb was determined as 90 nM. Besides, in assay [4], the IC50 amounted to 910 nM and the inhibition at 1 µM is 61%.

`O=C(c1nn2ccccc2c1-c1ccccc1)N1CCC[C@H]1Cn1cc(-c2ccc(F)cn2)cn1` [Example 112]: in assay [1], the Ki came to 390 nM. Also, in assay [2], the IC50 was 4 nM, the inhibition at 1 µM was 100% and the Kb was found to be 0.8 nM. In assay [3], the IC50 was found to be 15 nM, the inhibition at 1 µM was 86% and the Kb was 3 nM. Further, in assay [4], the IC50 worked out at 720 nM and the inhibition at 1 µM is 70%.

As to `[2H]C1([2H])CC[C@@]([2H])(Cn2ccc(-c3ccc(F)cc3)n2)N1C(=O)c1c(-c2ccccc2)nc2ccc(F)cn12` [Example 177], the affinity in assay [1] corresponds to a Ki of 49 nM. Besides, in assay [2], the IC50 worked out at 20 nM, the inhibition at 1 µM amounted to 95% and the Kb came out at 4 nM. In addition, in assay [3], the IC50 worked out at 371 nM, the inhibition at 1 µM stood at 85% and the Kb was 64 nM. In assay [4], the IC50 was 90 nM and the inhibition at 1 µM came to 91%.
